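These data come from cells grown in 96-well plates and exposed to compound for 48 hours at five concentrations. Here, GI50 denotes the concentration required for 50% inhibition of growth. TGI denotes the concentration required for complete inhibition of growth.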
Tests used:
Assay in all cases: inhibition of tumour cell growth, NCI panel, 48 h
SNB-19 CNS = system: SNB-19 CNS
TK-10 renal = system: TK-10 renal
HS 578T breast = system: HS 578T breast
NCI-H522 lung = system: NCI-H522 lung
K-562 leukemia = system: K-562 leukemia
T-47D breast = system: T-47D breast
SK-OV-3 ovarian = system: SK-OV-3 ovarian
SK-MEL-5 melanoma = system: SK-MEL-5 melanoma
SF-539 CNS = system: SF-539 CNS
MDA-MB-435 = system: MDA-MB-435
RPMI-8226 leukemia = system: RPMI-8226 leukemia
BT-549 breast = system: BT-549 breast
KM12 colon = system: KM12 colon
MOLT-4 leukemia = system: MOLT-4 leukemia
UACC-257 melanoma = system: UACC-257 melanoma
HOP-92 NSCLC = system: HOP-92 NSCLC
NCI-H460 lung = system: NCI-H460 lung
NCI/ADR-RES ovarian = system: NCI/ADR-RES ovarian
HCT-116 colon = system: HCT-116 colon
NCI-H23 lung = system: NCI-H23 lung
OVCAR-4 ovarian = system: OVCAR-4 ovarian
CCRF-CEM leukemia = system: CCRF-CEM leukemia
SR leukemia = system: SR leukemia
NCI-H226 lung = system: NCI-H226 lung
M14 melanoma = system: M14 melanoma
UACC-62 melanoma = system: UACC-62 melanoma
A498 renal = system: A498 renal
DU-145 prostate = system: DU-145 prostate
EKVX NSCLC = system: EKVX NSCLC
OVCAR-3 ovarian = system: OVCAR-3 ovarian
MDA-MB-468 breast = system: MDA-MB-468 breast
MCF7 breast = system: MCF7 breast
SNB-75 CNS = system: SNB-75 CNS
SN12C renal = system: SN12C renal
HCT-15 colon = system: HCT-15 colon
IGROV1 ovarian = system: IGROV1 ovarian
SK-MEL-2 melanoma = system: SK-MEL-2 melanoma
ACHN renal = system: ACHN renal
MDA-MB-231 breast = system: MDA-MB-231 breast
COLO 205 colon = system: COLO 205 colon
OVCAR-8 ovarian = system: OVCAR-8 ovarian
UO-31 renal = system: UO-31 renal
SK-MEL-28 melanoma = system: SK-MEL-28 melanoma
RXF 393 renal = system: RXF 393 renal
PC-3 prostate = system: PC-3 prostate
SW-620 colon = system: SW-620 colon
HCC-2998 colon = system: HCC-2998 colon
SF-295 CNS = system: SF-295 CNS
LOX IMVI melanoma = system: LOX IMVI melanoma
786-0 renal = system: 786-0 renal
HT29 colon = system: HT29 colon
A549 NSCLC = system: A549 NSCLC
CAKI-1 renal = system: CAKI-1 renal
HOP-62 NSCLC = system: HOP-62 NSCLC
SF-268 CNS = system: SF-268 CNS
U251 CNS = system: U251 CNS
HL-60(TB) leukemia = system: HL-60(TB) leukemia
OVCAR-5 ovarian = system: OVCAR-5 ovarian
MALME-3M melanoma = system: MALME-3M melanoma

CN(CCO)c1oc(-c2ccccc2)nc1[P+](c1ccccc1)(c1ccccc1)c1ccccc1
GI50 (SNB-19 CNS): 2.01 µM
TGI (SNB-19 CNS): 7.95 µM
GI50 (TK-10 renal): 3.5 µM
TGI (TK-10 renal): 15.2 µM
GI50 (HS 578T breast): 2.39 µM
TGI (HS 578T breast): 9.08 µM
GI50 (NCI-H522 lung): 0.854 µM
TGI (NCI-H522 lung): 4.05 µM
GI50 (K-562 leukemia): 1.01 µM
TGI (K-562 leukemia): 13.6 µM
GI50 (T-47D breast): 0.517 µM
TGI (T-47D breast): 11.2 µM
GI50 (SK-OV-3 ovarian): 2.98 µM
TGI (SK-OV-3 ovarian): 8.21 µM
GI50 (SK-MEL-5 melanoma): 1.15 µM
TGI (SK-MEL-5 melanoma): 2.52 µM
GI50 (SF-539 CNS): 2.74 µM
TGI (SF-539 CNS): 12.1 µM
GI50 (MDA-MB-435): 1.6 µM
TGI (MDA-MB-435): 9.66 µM
GI50 (RPMI-8226 leukemia): 0.393 µM
TGI (RPMI-8226 leukemia): 4.03 µM
GI50 (BT-549 breast): 1.78 µM
TGI (BT-549 breast): 7.08 µM
GI50 (KM12 colon): 2.12 µM
TGI (KM12 colon): 10.2 µM
GI50 (MOLT-4 leukemia): 2.77 µM
TGI (MOLT-4 leukemia): 11.8 µM
GI50 (UACC-257 melanoma): 1.95 µM
TGI (UACC-257 melanoma): 9.63 µM
GI50 (HOP-92 NSCLC): 1.22 µM
TGI (HOP-92 NSCLC): 4.9 µM
GI50 (NCI-H460 lung): 2.74 µM
TGI (NCI-H460 lung): 12.4 µM
GI50 (NCI/ADR-RES ovarian): > 100 µM
TGI (NCI/ADR-RES ovarian): > 100 µM
GI50 (HCT-116 colon): 2.84 µM
TGI (HCT-116 colon): 12 µM
GI50 (NCI-H23 lung): 2.27 µM
TGI (NCI-H23 lung): 7.25 µM
GI50 (OVCAR-4 ovarian): 2.79 µM
TGI (OVCAR-4 ovarian): 27.1 µM
GI50 (CCRF-CEM leukemia): 2.39 µM
TGI (CCRF-CEM leukemia): 12.2 µM
GI50 (SR leukemia): 1.64 µM
TGI (SR leukemia): 12.4 µM
GI50 (NCI-H226 lung): 2.73 µM
TGI (NCI-H226 lung): 10.9 µM
GI50 (M14 melanoma): 2.81 µM
TGI (M14 melanoma): 12.4 µM
GI50 (UACC-62 melanoma): 1.23 µM
TGI (UACC-62 melanoma): 5.97 µM
GI50 (A498 renal): 6.82 µM
TGI (A498 renal): 22.8 µM
GI50 (DU-145 prostate): 3.26 µM
TGI (DU-145 prostate): 13.7 µM
GI50 (EKVX NSCLC): 2.35 µM
TGI (EKVX NSCLC): 13.4 µM
GI50 (OVCAR-3 ovarian): 1.08 µM
TGI (OVCAR-3 ovarian): 12.6 µM
GI50 (MDA-MB-468 breast): 0.285 µM
TGI (MDA-MB-468 breast): 1.37 µM
GI50 (MCF7 breast): 1.21 µM
TGI (MCF7 breast): 6.84 µM
GI50 (SNB-75 CNS): 1.28 µM
TGI (SNB-75 CNS): 5.89 µM
GI50 (SN12C renal): 2.4 µM
TGI (SN12C renal): 6.88 µM
GI50 (HCT-15 colon): 13.5 µM
TGI (HCT-15 colon): 31.2 µM
GI50 (IGROV1 ovarian): 0.802 µM
TGI (IGROV1 ovarian): 7.45 µM
GI50 (SK-MEL-2 melanoma): 1.96 µM
TGI (SK-MEL-2 melanoma): 5.43 µM
GI50 (ACHN renal): 8.36 µM
TGI (ACHN renal): 41.6 µM
GI50 (MDA-MB-231 breast): 1.36 µM
TGI (MDA-MB-231 breast): 4.18 µM
GI50 (COLO 205 colon): 1.46 µM
TGI (COLO 205 colon): 3.28 µM
GI50 (OVCAR-8 ovarian): 3.33 µM
TGI (OVCAR-8 ovarian): 16.3 µM
GI50 (UO-31 renal): 19 µM
TGI (UO-31 renal): 54.3 µM
GI50 (SK-MEL-28 melanoma): 1.54 µM
TGI (SK-MEL-28 melanoma): 12.7 µM
GI50 (RXF 393 renal): 1.94 µM
TGI (RXF 393 renal): 9.64 µM
GI50 (PC-3 prostate): 1.75 µM
TGI (PC-3 prostate): 10.4 µM
GI50 (SW-620 colon): 2.9 µM
TGI (SW-620 colon): 23.1 µM
GI50 (HCC-2998 colon): 1.82 µM
TGI (HCC-2998 colon): 12.4 µM
GI50 (SF-295 CNS): 2.62 µM
TGI (SF-295 CNS): 9.92 µM
GI50 (LOX IMVI melanoma): 2.21 µM
TGI (LOX IMVI melanoma): 10.1 µM
GI50 (786-0 renal): 5.31 µM
TGI (786-0 renal): 20.8 µM
GI50 (HT29 colon): 2.82 µM
TGI (HT29 colon): 21.2 µM
GI50 (A549 NSCLC): 5.22 µM
TGI (A549 NSCLC): 34.6 µM
GI50 (CAKI-1 renal): 4 µM
TGI (CAKI-1 renal): 24.9 µM
GI50 (HOP-62 NSCLC): 3.49 µM
TGI (HOP-62 NSCLC): 13 µM
GI50 (SF-268 CNS): 3.27 µM
TGI (SF-268 CNS): 14 µM
GI50 (U251 CNS): 2.31 µM
TGI (U251 CNS): 13.6 µM
GI50 (HL-60(TB) leukemia): 0.535 µM
TGI (HL-60(TB) leukemia): 2.73 µM
GI50 (OVCAR-5 ovarian): 2.27 µM
TGI (OVCAR-5 ovarian): 8.21 µM
GI50 (MALME-3M melanoma): 1.6 µM
TGI (MALME-3M melanoma): 9.14 µM
